{"source": "patent US10457639B2", "about": "“Fluorescent regulators of RASSF1A expression and human cancer cell proliferation” (GEORGETOWN UNIVERSITY, priority 2008, dated 2019)", "key": {"[1]": {"target": "T1, DNMT3b (Homo sapiens, UniProt Q9UBC3)", "T1 construct": "endogenous in cells; host or cells: PC-3 human prostate cancer cells", "test": "Multiphoton laser imaging, DNMT3b antibody staining", "type": "cell-based", "details": "PC-3 cells, 5 μM", "method": "(A) Fluorescent spectrum of compound 6a; (B) PC-3 cells were treated with a 5 μM solution of compound 6a for 1 hr before being fixed and stained with propidium iodide and DNMT3b antibody; (C) Cells were treated with a 5 μM solution of compound 6a for 6 hr before fixation; (D) Cells were treated with a 5 μM solution of DMSO for 6 hr before fixation. The frames in each set of images are from left to right, top to bottom: propidium iodide; clear field; DNA methyltransferase 3b (DNMT3b); compound 6a or vehicle; and merged. Compound 6a was excited at 725 nm with a multiphoton laser and imaged with a 500-550 nm filter. Arrows indicate representative cells in which DNMT3b is solely in the cytoplasm.\nMultiphoton laser imaging. After incubating slides with a fibronectin/cortactin solution for 30 minutes, PC-3 cells were plated onto the slides and incubated overnight. The cells were then treated with a 5 μM solution of compound 6a or DMSO control and incubated for 1-6 hour before washing with PBS. The slides were fixed with a 4% formaldehyde solution, washed with PBS then treated with propidium iodide (nuclear localization) and DNMT3a or DNMT3b. The compound was excited at 725 nm with a multiphoton laser and imaged with a 500-550 nm filter.\nThe dansyl moiety present in compound 6a allows it to visibly fluoresce at 552 nm when excited at 370 nm (FIG. 4A). […]"}, "[2]": {"system": "cyclin D1", "test": "RT-PCR of cyclin D1 mRNA in treated PC-3 cells", "type": "cell-based, human", "details": "5 μM, 24 hours", "method": "Representative photograph of an experiment repeated thrice. PC-3 cells were treated 24 hours with either 15 μM for compounds 6, 7, 7a, 8, 9, 10 or 5 μM for compound KED-4-69 (compound 6a) before RNA extraction and RT-PCR amplification.\nReverse Transcriptase-polymerase Chain Reaction (RT-PCR). From PC-3 cells incubated 24 hours with either 15 μM of compound 6, 7, 7a, 8, 9, 10 or 5 μM of KED-4-69 (compound 6a), RNA was extracted with TRIzol solution (Invitrogen, Carlsbad, Calif.) and genes of interest were amplified using 500 ng of total RNA reverse-transcribed to cDNA using a Superscript II kit (Invitrogen) with random hexamers. Human-specific primers were designed using the Primer Quest program and purchased from Integrated DNA Technologies, Inc. (Coralville, Iowa). Their sequences and product band sizes are: cyclin D1 forward primer 5′-[…]-3′ (SEQ ID NO:1), cyclin D1 reverse primer 5′-[…]-3′ (SEQ ID NO:2) (475 bp) and GAPDH forward primer: 5′-CCA […]-3′ (SEQ ID NO:3), GAPDH reverse primer: 5′-TCTAGACGGCAG GTCAGGTCCACC-3′ (SEQ ID NO:4) (598 bp). PCRs were initiated at 94° C. for 2 min, followed by 28 cycles of 94° C. for 1 min, 1 min annealing temperature, 72° C. for 1 min, and final extension at 72° C. for 5 min. The annealing temperature for cyclin D1 and GAPDH was 60° C. Primers and PCR conditions for RASSF1A are used as described by Rong et al. (Oncogene. 2004, 23, 8216-8230). After amplification, PCR products were separated on 1.5% agarose gels and visualized by ethidium bromide fluorescence using the Fuji LAS-1000 Imager. Images were captured and imported to Adobe Photoshop. Band intensities were quantified by using ImageJ software (NIH, Bethesda, Md.).\nIt has been reported that mRNA levels of RASSF1A correlate to its protein expression levels (Rong et al. Oncogene, 2004, 23: 8216-8230). To investigate the effects of the synthetic compounds on RASSF1A and cyclin D1 expression, levels of the respective mRNAs in treated cells compared to control were analyzed (FIG. 3). […] Because overexpression of cyclin D1 is associated with tumorigenicity and proliferation in a variety of tumors, including prostate cancers, this downregulation provides a cancer treatment method (Chen, Y. et al. Oncogene. 1998, 16, 1913-1920; Musgrove, E. A. et al. Proc. Natl. Acad. Sci. USA. 1994, 91, 8022-8026)."}}}
{"smiles": "COc1ccc2c(c1)[nH]c1c(C)c(OS(=O)(=O)c3cccc4c(N(C)C)cccc34)ccc12", "note": "[Compound 6a, 7-Methoxy-1-methyl-9H-carbazol-2-yl 5-(dimethylamino)naphthalene-1-sulfonate]", "values": [{"measurement": "DNMT3b localization", "setting": "[1]; one hour", "result": "a population of treated cells that have DNMT3b only in the cytoplasm"}, {"measurement": "DNMT3b localization", "setting": "[1]; six hours", "result": "majority of treated cells having DNMT3b only in the cytoplasm"}, {"measurement": "cyclin D1 mRNA level versus control", "setting": "[2]", "result": "corresponding decrease in cyclin D1"}]}
